Results published in patent US20210017499A1, “SILOXANE POLYMER-BASED CANCER STEM CELL PREPARATION METHOD” (KOREA ADVANCED INSTITUTE OF SCIENCE AND TECHNOLOGY, priority 2019, published 2021).

Assays:
Assay in all cases: Cell viability for doxorubicin (WST-1)
Format in all cases: cell-based, human
[1] = tested on: SKOV3-ssiCSC; details: DOX at various concentrations, 24 hours
Description: (§1) ssiCSC spheroids prepared from different kinds of cancer cells (SKOV3, MCF-7, Hep3B and SW480) were isolated using trypsin (TrypLE Express, Gibco), and the isolated cells were washed with D-PBS twice. The ssiCSC was plated on a 96-well plate (1×10^4 cells/well) and was cultured in a cell growth medium at 37° C. for 24 hours. Then, the medium was removed, and a new medium comprising various concentrations of doxorubicin was added to each well and cultured for 24 hours. Next, each well was washed with D-PBS and was replaced with a new cell growth medium of 100 μl, and then WST-1 cell proliferation reagent (Roche) of 10 μl was added and cultured for 4 hours. Then, the absorbance at 450 nm (standard wavelength, 600 nm) was measured using a microplate reader (Molecular Devices).
(§2) In addition, the drug resistance of ssiCSC for doxorubicin (DOX) known as an anti-cancer agent was confirmed. Specifically, ssiCSC spheroids prepared by culturing on the pV4D4 surface for 8 days were isolated to single cells, and the cell was cultured on the conventional TCP surface to a 2D single layer, and then DOX at various concentrations was treated for 24 hours.

[2] = tested on: SW480-ssiCSC
Description: as §1, §2

[3] = tested on: ssiCSC (SKOV3, MCF-7, Hep3B and SW480); details: Dox of 50 μM, 24 hours, vs 2D control group
Description: as §1, §2

`COc1cccc2c1C(=O)c1c(O)c3c(c(O)c1C2=O)C[C@@](O)(C(=O)CO)C[C@@H]3O[C@H]1C[C@H](N)[C@H](O)[C@H](C)O1` [Dox, doxorubicin] was tested, and the “drug resistance (cell viability)” value [1] was “complete resistance”, the “drug resistance (cell viability)” value ([2]; DOX at various concentrations, 24 hours) was “complete resistance” and the “drug resistance after subculture” value ([2]; subcultured on the TCP surface twice) was “maintained drug resistance”. The cell viability ([2]; vs control group cancer cells without DOX) was “higher cell viability than the cancer cells of the control group in which DOX was not treated” and the “drug resistance (cell viability)” value [3] was “higher resistance”.
